{"source": "patent US20170065561A1", "about": "“METHODS OF CANCER THERAPY” (CAMBRIDGE ENTERPRISE LIMITED, priority 2014, published 2017)", "origin": "cited, not measured here", "test_system": "type 1 (non-neuronopathic) Gaucher disease", "conditions": "type 1 Gaucher disease; cited from earlier work"}
{"smiles": "CCCCN1C[C@H](O)[C@@H](O)[C@H](O)[C@H]1CO", "note": "[N-butyldeoxynojirimycin]", "values": [{"measurement": "therapeutic action in clinical studies", "value": "small therapeutic action"}]}
